How the values were obtained:
neutral endopeptidase = target: T1, neutral endopeptidase (Homo sapiens, UniProt P08473); assay: Neutral endopeptidase activity-inhibiting test in cultured human fibroblast; assay type: biochemical; conditions: human fibroblast enzyme solution, substrate glutaryl-Ala-Ala-Phe-4-methoxy-2-naphthylamine, read-out: Percent inhibition of neutral endopeptidase activity (%)
T1 construct: suspended in a 0.1% Triton X-100/0.2 M Tris-HCl buffer (pH: 8.0) and ultrasonically disrupted to use as an enzyme solution; host or cells: normal human fibroblasts, Triton X-100 lysate
From the text: (§1) Normal human fibroblasts commercially available from Dainippon Pharmaceutical Co., Ltd. were subcultured in a DMEM containing a 10% fetal bovine serum and used in this test. The cells separated from a Petri dish with a rubber policeman were suspended in phosphate-buffered physiological saline, collected by means of a low-speed centrifugal separator and washed 3 times with phosphate-buffered physiological saline. The thus-treated cells were suspended in a 0.1% Triton X-100/0.2 M Tris-HCl buffer (pH: 8.0) and ultrasonically disrupted to use as an enzyme solution.
The enzyme solution (2 μl), a solution (1 μl) of each subject compound and 20 mM glutaryl-Ala-Ala-Phe-4-methoxy-2-naphthylamine as a substrate for the measurement of enzyme activity were added to 100 μl of an MES buffer solution (100 mM, pH: 6.5), to which sodium chloride (300 mM) had been added, to conduct a reaction at 37° C. for 1 hour. The reaction was stopped by adding phosphoramidone so as to give a final concentration of 0.4 μM. Aminopeptidase M was added to the reaction mixture so as to give a final concentration of 20 mU, thereby conducting a reaction at 37° C. for 15 minutes. The amount of 4-methoxy-2-naphthylamine formed was determined by measuring a fluorescence intensity at an excitation wavelength of 340 nm and a fluorescence wavelength of 425 nm by means of a fluorescence spectrophotometer, thereby finding percent inhibition of neutral endopeptidase activity by the subject compound.

elastase = assay: Elastase activity-inhibiting test in cultured human fibroblast; assay type: biochemical; conditions: human fibroblast enzyme solution, substrate N-succinyl-(Ala)3-p-nitroanilide, 37° C. 1 hour
From the text: as §1, with “in” for “in phosphate-buffered”, “with” for “with phosphate-buffered”
125 mM N-Succinyl-(Ala)3-p-nitroanilide was used as a substrate for the measurement of enzyme activity, and each subject (1 μl; its concentration is shown in Table 1) was added to the enzyme solution (100 μl) to conduct a reaction at 37° C. for 1 hour. The reaction was stopped by adding acetic acid (5 μl). The amount of nitroaniline formed was determined by measuring an absorbance at 405 nm by means of a spectrophotometer.

[1] = tested on: regeneration of mouse back hair; assay: Test of inhibiting regeneration of mouse back hair; assay type: in vivo; conditions: applied twice a day 100 μl/time to shaved back, C3H mice, vs solvent control
Experimental: Back hair of a group of 5 C3H mice aged 6 weeks was shaved over 2×4 cm^2 by means of an electric hair clipper and an electric shaver so as not to damage their skins. Each subject was applied to the shaved sites twice a day in an amount of 100 μl/time over 4 weeks. Only the solvent was applied to a control group. After 3 weeks, a photograph of each shaved site was taken at a fixed magnification for observing the state of regenerated hair to compare a regenerated hair area ratio (regenerated hair area/shaved area) of the test group with that of the control group.

T1 sequence (P08473 whole entry): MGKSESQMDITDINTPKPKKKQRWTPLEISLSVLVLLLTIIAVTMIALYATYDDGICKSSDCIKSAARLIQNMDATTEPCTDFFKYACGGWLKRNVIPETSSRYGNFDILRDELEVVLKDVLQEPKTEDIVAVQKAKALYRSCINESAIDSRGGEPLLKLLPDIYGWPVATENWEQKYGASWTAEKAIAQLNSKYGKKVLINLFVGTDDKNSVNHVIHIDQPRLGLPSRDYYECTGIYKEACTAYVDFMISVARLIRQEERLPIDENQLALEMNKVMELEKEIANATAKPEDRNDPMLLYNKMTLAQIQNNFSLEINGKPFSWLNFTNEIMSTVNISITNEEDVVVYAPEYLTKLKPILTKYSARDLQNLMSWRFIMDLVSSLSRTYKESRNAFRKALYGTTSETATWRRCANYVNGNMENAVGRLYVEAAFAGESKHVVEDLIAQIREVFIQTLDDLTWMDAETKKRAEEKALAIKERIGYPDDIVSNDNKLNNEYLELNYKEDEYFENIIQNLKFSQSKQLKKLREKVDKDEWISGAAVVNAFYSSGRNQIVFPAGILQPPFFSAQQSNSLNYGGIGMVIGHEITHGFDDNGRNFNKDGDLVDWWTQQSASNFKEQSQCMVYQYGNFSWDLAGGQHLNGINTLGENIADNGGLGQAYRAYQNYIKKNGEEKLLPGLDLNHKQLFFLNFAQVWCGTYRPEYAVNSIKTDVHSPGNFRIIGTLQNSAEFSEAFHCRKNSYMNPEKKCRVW

Compound	inhibition at 10 µM (neutral endopeptidase)	Percent inhibition of elastase activity (%) (elastase; 0.1 mM)	Percent inhibition of hair growth after 3 weeks from shaving (%) ([1]; 1 mM in 80% ethanol)	Percent inhibition of elastase activity (%) (elastase; 1 mM)	Percent inhibition of hair growth after 3 weeks from shaving (%) ([1]; 10 mM in 80% ethanol)
CC(C)CC(NP(=O)(O)OC1OC(C)C(O)C(O)C1O)C(=O)NC(Cc1c[nH]c2ccccc12)C(=O)O (stereo not shown) [Compound 1]	99%	85.6%	58.7%		
CC(C)CC(NP(=O)(O)CCc1ccccc1)C(=O)NC(Cc1c[nH]c2ccccc12)C(=O)O (stereo not shown) [Compound 2]	98.8%	82.1%	59.1%		
CC(C)CC(NC(=O)C(CC(C)C)NP(=O)(O)CCc1ccccc1)C(=O)O (stereo not shown) [Compound 3]		90.2%	64.8%		
CC(C)CC(NP(=O)(O)CCc1ccccc1)C(=O)NCC(=O)O (stereo not shown) [Compound 4]				68.4%	60.5%
O=C(O)CCNC(=O)C(CS)Cc1ccccc1 (stereo not shown) [Compound 7]	97.1%	85.4%	59.7%		
O=C(O)CNC(=O)C(CS)Cc1ccccc1 (stereo not shown) [Compound 8]	96.3%	89.6%	71.6%		

Source: patent US7041658B2, “Method of inhibiting hair growth” (Kao Corporation, priority 1998, dated 2006)
